Data set [1] relates to HMC-1 cells. The data set is described as follows: Cytotoxicity (MTT-assay) in HMC-1 cells. It is filed as cell-based, human. As to conditions: 10 μM. On the procedure:
(§1) (1) Cell culture: A human mast cell line (HMC-1) was cultured in an IMDM supplemented with 10% FBS at 37° C. and 5% CO2. Candidate materials were dissolved in DMSO, and then filtered using a 0.22 μm filter. The resulting candidate materials were diluted with DMSO and the HMC-1 cells were treated therewith.
[…] After culturing, the medium was replaced by a fresh medium, 5 mg/ml of an MTT solution was then added thereto, and the mast cells were incubated at 37° C. for 4 hours. 250 DMSO was added to the mast cells, MTT formazan was extracted therefrom, and absorbance of each well was measured at 540 nm using an ELISA reader.
On the technique in general: Tetrazolium assays rely on reduction of a dye to a coloured formazan, in cell work by metabolically active cells.

In data set [2] the test system is TSLP secretion from human mast cells (HMC-1 cells). The data set is described as follows: TSLP secretion ELISA in PMACI-stimulated mast cells. As to conditions: PMACI-stimulated HMC-1 cells, ELISA. It is filed as cell-based. On the procedure:
as §1
(3) Enzyme-linked immunosorbent assay (ELISA): Mast cells (3×10^6 cells/ml) were stabilized for 1 hour, and then treated with 0.1 μM, 1 μM, and 10 μM of candidate materials, followed by treatment with PMACI for 8 hours. The mast cells were centrifuged to obtain supernatants. To measure the amount of TSLP secreted from the cells, ELISA was used. The ELISA was performed in 96-well plates coated with 1 μg/well of TSLP capture Ab. The coated plates were washed twice with PBS. The cells were treated with PBS containing 10% FBS for 2 hours. Thereafter, the cells were washed with PBS containing 0.05% Tween-20 (Sigma), and recombinant TSLP was used to draw a standard curve. Subsequently, the plates were exposed to a biotinylated-TSLP antibody, Avidin peroxidase, an ARTS substrate containing 30% H2O2, and then measured at 405 nm.
(In general: ELISA stands for enzyme-linked immunosorbent assay.)

Data set [3] relates to DSS-induced animal model. The experiment in a line: DSS-induced inflammatory bowel disease (enteritis) model. The format is in vivo, C57BL/6 mice. The protocol:
Six-week-old female SPF (Specific pathogen-free) C57BL/6 mice were purchased from DuPont Biotech. The mice were allowed to freely ingest a feed and water after an acclimation period of 1 week in an animal room of Hoseo University Safety Evaluation Center maintained at temperature of 21±3° C., humidity of 50±20%, and light/darkness cycle of 12 h/12 h. All procedures in the present animal experiment were conducted after approved by the Animal Experimental Ethics Committee of Hoseo University (HTRC-15-19, and HTRC-16-22(2)).
Dextran sodium sulfate (cat no 160110 by Mpbio. corn) as a colitis inducer was diluted to 3% concentration in drinking water and orally administered to mice to induce enteritis. The mice were divided into 6 groups and DW was administered to the animals of a control, and 1.0 mg/kg and 10 mg/kg of the test material were orally administered to the animals of the experimental groups once a day for […]. Sulfasalazine (100 mg/kg) dissolved in crude olive oil was orally administered once a day to the animals of a positive control. In acute cases, disease progression levels were examined after 5 days of administration. In chronic cases, disease progression levels were examined 15 days and 30 days after the 5 days of administration (reference: Toxicology Reports 2 (2015) 10391045-Caryophyllene attenuates dextran sulfate sodium-induced colitis in mice via modulation of gene expression associated mainly with colon inflammation).
Body weights were measured once for 5 days or more during the test period. The measured weights were quantified as 0 point if there was no difference compared with the normal control, 1 point for weight loss rate of 15%, 2 points for 510%, 3 points for 1015%, and 4 points for >15%. Feces observation was performed to examine the incidence of diarrhea, and the results thereof were quantified as scores (0, normal stool; 1, mildly soft stool; 2, very soft stool; 3, very soft stool (no regular shape); 4, watery stool).
Rectal tissues and blood were collected from 5 individuals for each of the autopsy times. Yuhan ketamine 50® (Yuhan Corporation, Korean) and Rompun (Bayer, USA) were mixed in a ratio of 3:1, and then used to anesthetize animals via muscular injection. Each anesthetized animal was subjected to laparotomy to collect blood from the abdominal artery, and after blood collection, the abdominal artery was cut and subjected to venesection and death to collect rectal tissue. The length and weight of the collected tissue were measured to calculate weight per 1 cm of the tissue. Some of the collected tissues were used in biopsy, and some thereof were frozen in liquid nitrogen and stored at −70° C. before analysis. […]

Data set [4] deals with T1, human recombinant caspase-1 (Homo sapiens, UniProt P29466).
T1 sequence (P29466 120-404): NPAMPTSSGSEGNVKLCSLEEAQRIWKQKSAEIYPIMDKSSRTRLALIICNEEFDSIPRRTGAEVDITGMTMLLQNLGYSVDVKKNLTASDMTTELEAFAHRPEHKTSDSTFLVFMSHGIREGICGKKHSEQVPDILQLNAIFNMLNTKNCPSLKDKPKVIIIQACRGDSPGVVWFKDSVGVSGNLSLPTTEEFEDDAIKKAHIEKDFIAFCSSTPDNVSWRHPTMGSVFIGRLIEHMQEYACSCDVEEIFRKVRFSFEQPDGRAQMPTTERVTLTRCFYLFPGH
The data set is described as follows: Recombinant caspase-1 activity assay (kit). As to conditions: caspase-1 assay kit. It is filed as biochemical. The protocol: (4) Caspase-1 assay: Recombinant caspase-1 and a drug were allowed to react, and then activity measurement was performed using a caspase-1 assay kit (R&D Systems Inc., Minneapolis, Minn., USA).
Recombinant caspase-1 and a drug were allowed to react, and then activity was measured using a caspase-1 assay kit (R&D Systems Inc., Minneapolis, Minn., USA).

Data set [5] has as its target T2, caspase-1 (Homo sapiens, UniProt P29466).
T2 construct: a caspase-1 assay was conducted using cell extracts; endogenous in cells; host or cells: HMC-1 (human mast cells)
T2 sequence (P29466 120-297 limits assumed): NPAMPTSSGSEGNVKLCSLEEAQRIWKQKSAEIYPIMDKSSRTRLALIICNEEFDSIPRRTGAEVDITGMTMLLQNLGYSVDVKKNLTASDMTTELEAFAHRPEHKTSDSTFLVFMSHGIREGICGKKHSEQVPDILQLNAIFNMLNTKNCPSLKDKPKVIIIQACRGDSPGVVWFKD
T2 sequence (P29466 317-404 limits assumed): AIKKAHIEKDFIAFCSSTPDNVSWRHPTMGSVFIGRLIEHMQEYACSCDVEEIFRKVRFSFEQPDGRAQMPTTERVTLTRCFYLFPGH
The experiment in a line: Caspase-1 assay using HMC-1 cell extracts. It is filed as cell-based.

Data set [6] has as its system HaCat cells. The experiment in a line: Cytotoxicity (MTT-assay) in HaCat cells. The format is cell-based, human. The protocol: (1) Cell culture: A human skin cell line (HaCat cells) was cultured in RPMI containing 10% FBS at 37° C. and 5% CO2. Candidate materials were dissolved in DMSO, and then filtered using a 0.22 μm filter. The resulting candidate materials were diluted with DMSO and the HaCat cells were treated therewith.
(2) Cytotoxicity (MTT-assay): After stabilizing HaCat cells (3×10^5 cells/ml) for 1 hour, they were treated with candidate materials variously beginning from a concentration of 10 μM, followed by treatment with Poly (I:C) for 8 hours. Then, the medium was replaced by a fresh medium, 5 mg/ml of an MTT solution was then added thereto, and the mast cells were incubated at 37° C. for 4 hours. 250 DMSO was added to the HaCat cells, MTT formazan was extracted therefrom, and absorbance of each well was measured at 540 nm using an ELISA reader.

The subject of data set [7] is balb/c mice with DNCB-induced atopic dermatitis. The data set is described as follows: DNCB-induced atopic dermatitis model. It is filed as in vivo. As to conditions: 0.1% dexamethasone. The text has this: (5) Reverse transcription-polymerase chain reaction (RT-PCR) quantitative real time PCR: Total RNA was isolated from cells and tissues, and cDNA was synthesized using a reverse transcriptase and was then reacted with cytokine primers to be analyzed, followed by PCR and real-time PCR. The RT-PCR products were subjected to electrophoresis using 1.5% agarose gel for analysis.
A. Experimental animal: 5-week-old male BALB/c mice obtained from. Daehan Biolink (Eumseong, Chungbuk) were adapted for 2 weeks in a clean animal breeding room (small animal room #2-302) at Hoseo University Safety Evaluation Center, set under environmental conditions: temperature of 22±3° C.; relative humidity of 50±20%; ventilation frequency of 10 to 15 times/hour, illumination for 12 hours; and illuminance of 150 Lux to 300 Lux, and then used in an experiment.
4 experimental animals were accommodated in each of polycarbonate cages (270×500×200 mm, KYERYONG SCIENCE). Feed (5053-Picolab Rodent 20, PMI Nutrition International) and drinking water (ultraviolet sterilized filtered water) were allowed to ingest freely. All procedures of the experiment were conducted after approved by the Ethics Committee of the Hoseo University Safety Evaluation Center (HTRC-15-19).
B. Dermatitis induction: Hairs on the back of each mouse were removed and maintained for 24 hours, and then 150 μl of a 1% 2,4-dinitrochlorobenzene(DNCB) solution (acetone: olive oil=3:1) was applied on the hair-removed site once a week for 3 weeks. After week 3, the DNCB solution was applied on the site twice a week for 3 weeks to induce atopic dermatitis.
C. Treatment: Mice were divided into 6 groups, and 0.5% DMSO was applied on animals as a control and 200 μl of each of 0.01 μM, 0.1 μM, and 1 μM test material was applied on animals as experimental groups for 3 weeks. 50 μl of 0.1% dexamethasone dissolved in a crude alcohol was applied on animals as a positive control at intervals of 2 days.
D. Biopsy: After application of the test material was completed, the dorsal skin of each experimental animal was incised under heart anesthesia, some of them were rapidly frozen using liquid nitrogen and stored at −70° C. before analysis, and the remainder was fixed with 10% neutral buffered formalin for 24 hours. The fixed tissues were prepared into slides through general tissue processing, and then subjected to hematoxylin & eosin (H&E) staining to measure the thickness of the epidermal layer. In addition, toluidine blue staining was performed to observe a quantitative change of mast cells. While the stained tissues were observed by an optical microscope, the thickness of the epidermal layer and the number of mast cells were obtained using an image analyzer (Olympus DP-21).
E. IgE level measurement: IgE concentration in blood was measured by (SHIBAYAGI, Japan) using serum collected when autopsy was performed. 50 μL of an IgE standard solution and the sample were placed in antibody-attached 96 wells and allowed to react for 2 hours, and then 50 μL of a biotin-conjugated anti-IgE antibody solution was added to each well and allowed to react for 2 hours. Thereafter, the resulting sample was reacted with a HRP-avidin solution for 1 hour and a chromogenic substrate (TBM) reagent for 20 minutes, and the reaction was stopped using a reaction stopper. Absorbance of the sample was measured at 450 nm using ELISA (Molecular devices Emax).

The values that follow come from patent publication US10278931B2, “Composition for treatment of inflammatory bowel disease and atopic dermatitis” (INNOPHARMASCREEN INC., priority 2015, dated 2019).

Consider `COc1ccc(NS(=O)(=O)c2cccc(S(=O)(=O)c3cccc(S(=O)(=O)Nc4ccc(OC)cc4)c3)c2)cc1` [IPS-07002], for which the “cytotoxicity (MTT-assay)” value in data set [1] is “did not exhibit cytotoxicity”. Besides, the “TSLP secretion from mast cells” value in data set [2] was “significantly inhibited”.
Taken in the same sequence, the figures for `O=C([O-])CC(=O)NC12CC3CC(CC(C3)C1)C2.[Na+]` [IPS-07003] were “did not exhibit cytotoxicity” and “significantly inhibited”.
For the compound `[H]/N=C(\N/C(=N/[H])Nc1ccc(Cl)cc1)NC(C)C` [IPS-07004], in data set [3] (10 mg/kg oral, compared to DSS control), the “enteritis inhibitory activity (ratio of enteric weight to enteric length, wt/cm)” value is given as “superior enteritis inhibitory activity”. Further, in data set [3] (compared to the DSS-induced group, oral), the melena entry is listed as “significantly decreased”. Also, the “recombinant caspase-1 activity” value in data set [4] is listed as “inhibits”. The “caspase-1 activity in HMC-1 cells” value in data set [5] is listed as “inhibits”. Moreover, the “cytotoxicity (MTT-assay)” value in data set [6] is “no cytotoxicity”.
`C[C@@H]1C[C@H]2[C@@H]3CCC4=CC(=O)C=C[C@]4(C)[C@@]3(F)[C@@H](O)C[C@]2(C)[C@@]1(O)C(=O)CO` [dexamethasone, reference compound]: the epidermal thickness in data set [7] (DNCB group 87.1±13.0, normal 24.5±10.3) is recorded as 39.9±9.4 μm. In data set [7] (DNCB group 790.0±151.8, no statistical significance), the “blood IgE level” value is given as 703.8±86.5.
